The values below come from patent US20260325533A1, “CDK INHIBITOR COMPOUNDS” (ALEKSIA THERAPEUTICS, INC., priority 2023, published 2026).

What all share (type): biochemical
One test concerns the target CDK6/CCND1 (Homo sapiens, UniProt Q00534). Put plainly: CDK6 homogeneous time-resolved fluorescence (HTRF) kinase assay. The settings on record: CDK6/CCND. The procedure, abridged: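 1 nM enzyme, 1 mM ATP, 50 nM ULight-4E-BP1 (Thr37/46) peptide, 1% DMSO; 20 min compound preincubation, 60 min reaction, 23 °C. EDTA stop, 2 nM Eu-anti-phospho-4E-BP1 antibody 60 min. TR-FRET 665 nm (or 665/615 ratio); IC50 from 11-point half-log titration, top 10 μM.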
Background: In TR-FRET formats the signal depends on donor and acceptor labels being close together.

The next test addresses CDK4/CCND3 (Homo sapiens, UniProt P11802). Nature of the test: CDK4 homogeneous time-resolved fluorescence (HTRF) kinase assay. Conditions: CDK4/CCND. The method, boiled down:
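Inhibition of CDK4/CCND3 (1.5 nM) was measured at high ATP (1 mM) using 50 nM ULight-labelled 4E-BP1 Thr37/46 peptide; detection used 2 nM europium anti-phospho antibody after EDTA quench. IC50 values came from 11-point half-log titrations typically starting at 10 μM.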

For a further test, the target named is CDK2/CCNE1 (Homo sapiens, UniProt P24941). Put plainly: CDK2 homogeneous time-resolved fluorescence (HTRF) kinase assay. The settings on record: CDK2/CCNE. The method, boiled down: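 CDK2/CCNE1 (3 nM) preincubated 20 min at 23 °C with compound, then reacted 60 min at 23 °C with 1 mM ATP and 50 nM ULight-4E-BP1 (Thr37/46) peptide. Stopped with EDTA, phospho-peptide detected by Eu-anti-phospho antibody (665 nm or 665/615 ratio). IC50 from 11-point half-log titrations typically starting at 10 μM.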

In another test the target is CDK1/CCNB1 (Homo sapiens, UniProt P06493). Put plainly: CDK1 homogeneous time-resolved fluorescence (HTRF) kinase assay. Conditions: CDK1/CCNB. The method, boiled down: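 Read-out: TR-FRET (Eu anti-phospho-4E-BP1 Thr37/46 antibody, 2 nM; 665 nm or 665/615 ratio) after 60 min phosphorylation of 50 nM ULight-peptide by 0.5 nM CDK1/CCNB1 at 1 mM ATP, 23 °C. Compound preincubated 20 min with enzyme; 1% DMSO.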

Setting [1] is: x = IC50 >250 nM, read-out: CDK6/CCND IC50 (>250 nM column).
Where [2] appears, read: x = IC50 >250 nM, read-out: CDK4/CCND IC50 (>250 nM column).
Setting [3] is: x = IC50 >250 nM, read-out: CDK1/CCNB IC50 (>250 nM column).
[4] abbreviates: x = IC50 <25 nM, read-out: CDK2/CCNE IC50 (<25 nM).
[5] abbreviates: x = IC50 25-250 nM, read-out: CDK6/CCND IC50 (25-250 nM).
[6] abbreviates: x = IC50 25-250 nM, read-out: CDK4/CCND IC50 (25-250 nM).
[7] abbreviates: x = IC50 25-250 nM, read-out: CDK1/CCNB IC50 (25-250 nM).
The mark [8] stands for this setting: <25 nM, read-out: CDK6/CCND IC50 <25 nM.
The mark [9] stands for this setting: <25 nM, read-out: CDK4/CCND IC50 <25 nM.
[10] abbreviates: 25-250 nM marked x, read-out: CDK2/CCNE IC50 25-250 nM.
[11] abbreviates: >250 nM marked x, read-out: CDK1/CCNB IC50 >250 nM.

SMILES strings stand for the structures. pIC50: −log10 of the molar value. Like-named read-outs stand apart in the source and are kept apart here.

CDK6/CCND1, sequence (Q00534 whole entry): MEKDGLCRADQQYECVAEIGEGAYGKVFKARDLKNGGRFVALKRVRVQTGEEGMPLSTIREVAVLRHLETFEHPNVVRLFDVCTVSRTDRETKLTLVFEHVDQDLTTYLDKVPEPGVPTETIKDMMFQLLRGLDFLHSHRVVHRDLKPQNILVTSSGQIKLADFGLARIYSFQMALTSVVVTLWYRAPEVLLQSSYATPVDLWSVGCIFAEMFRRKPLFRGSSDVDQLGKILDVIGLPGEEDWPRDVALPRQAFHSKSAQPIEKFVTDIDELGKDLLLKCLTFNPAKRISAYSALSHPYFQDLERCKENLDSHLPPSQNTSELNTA
CDK6/CCND1, sequence (P24385 whole entry partner): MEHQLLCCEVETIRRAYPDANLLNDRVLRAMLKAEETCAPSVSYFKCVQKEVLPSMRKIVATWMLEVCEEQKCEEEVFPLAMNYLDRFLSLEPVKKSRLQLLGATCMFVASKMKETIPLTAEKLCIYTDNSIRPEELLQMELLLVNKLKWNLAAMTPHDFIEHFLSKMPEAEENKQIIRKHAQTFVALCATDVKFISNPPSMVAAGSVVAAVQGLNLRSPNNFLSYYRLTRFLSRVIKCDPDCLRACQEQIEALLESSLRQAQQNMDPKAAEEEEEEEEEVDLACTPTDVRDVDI
CDK4/CCND3, sequence (P11802 whole entry): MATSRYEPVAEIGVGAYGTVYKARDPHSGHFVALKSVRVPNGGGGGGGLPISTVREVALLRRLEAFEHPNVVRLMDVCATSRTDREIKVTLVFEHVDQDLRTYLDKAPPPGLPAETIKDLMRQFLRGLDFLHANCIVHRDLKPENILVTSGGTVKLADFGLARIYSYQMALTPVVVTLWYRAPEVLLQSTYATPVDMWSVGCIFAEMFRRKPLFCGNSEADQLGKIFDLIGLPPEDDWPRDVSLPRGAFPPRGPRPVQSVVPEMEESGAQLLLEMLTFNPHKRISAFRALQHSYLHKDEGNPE
CDK4/CCND3, sequence (P30281 whole entry partner): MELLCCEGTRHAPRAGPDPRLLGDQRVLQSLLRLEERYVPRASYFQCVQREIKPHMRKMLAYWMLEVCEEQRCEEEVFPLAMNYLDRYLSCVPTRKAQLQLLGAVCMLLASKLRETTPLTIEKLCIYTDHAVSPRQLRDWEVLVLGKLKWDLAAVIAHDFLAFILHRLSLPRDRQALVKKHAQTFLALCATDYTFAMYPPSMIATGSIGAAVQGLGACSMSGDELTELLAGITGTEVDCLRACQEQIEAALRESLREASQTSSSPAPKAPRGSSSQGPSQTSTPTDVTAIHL
CDK1/CCNB1, sequence (P06493 whole entry): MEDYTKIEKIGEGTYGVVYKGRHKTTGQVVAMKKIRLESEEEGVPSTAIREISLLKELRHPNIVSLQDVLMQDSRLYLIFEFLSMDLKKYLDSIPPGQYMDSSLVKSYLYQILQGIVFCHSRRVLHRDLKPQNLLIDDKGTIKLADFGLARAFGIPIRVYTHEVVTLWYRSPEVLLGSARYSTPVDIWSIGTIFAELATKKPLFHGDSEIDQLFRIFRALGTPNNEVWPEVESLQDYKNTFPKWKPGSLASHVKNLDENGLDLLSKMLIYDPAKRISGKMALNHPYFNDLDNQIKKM
CDK1/CCNB1, sequence (P14635 whole entry partner): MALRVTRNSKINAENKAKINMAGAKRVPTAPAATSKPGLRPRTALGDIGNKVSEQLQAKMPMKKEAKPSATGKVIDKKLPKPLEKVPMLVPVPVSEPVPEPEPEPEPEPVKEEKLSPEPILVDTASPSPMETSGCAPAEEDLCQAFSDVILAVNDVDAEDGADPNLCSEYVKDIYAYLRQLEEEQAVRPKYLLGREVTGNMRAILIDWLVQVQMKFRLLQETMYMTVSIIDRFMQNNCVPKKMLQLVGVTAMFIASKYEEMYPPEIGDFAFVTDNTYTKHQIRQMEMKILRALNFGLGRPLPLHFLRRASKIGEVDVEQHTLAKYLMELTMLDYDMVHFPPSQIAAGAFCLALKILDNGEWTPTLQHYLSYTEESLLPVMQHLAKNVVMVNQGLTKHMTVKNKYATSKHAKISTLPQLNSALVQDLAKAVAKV

`CC(C)(O)Cn1cc2ccc(C#Cc3nccc4cnc(Nc5ccc(S(C)(=O)=O)cc5)cc34)cc2n1` (single isomer, unassigned) [Example 577, 2-Methyl-1-(6-((7-((4-(methylsulfonyl)phenyl)amino)-2,6-naphthyridin-1-yl)ethynyl)-2H-indazol-2-yl)propan-2-ol]: the pIC50 on CDK6/CCND1 (setting [1]) was under 6.60; on CDK4/CCND3 (setting [2]), under 6.60; at CDK2/CCNE1 (x = IC50 >250 nM, read-out: CDK2/CCNE IC50 (>250 nM column)), under 6.60; at CDK1/CCNB1 (setting [3]), under 6.60.

Consider `CS(=O)(=O)c1ccc(Nc2cc3c(-c4ccc5c(cnn5CC(O)(C(F)(F)F)C(F)(F)F)c4Cl)nccc3cn2)cc1` (single isomer, unassigned) [Example 587, 2-((4-chloro-5-(7-((4-(methylsulfonyl)phenyl)amino)-2,6-naphthyridin-1-yl)-1H-indazol-1-yl)methyl)-1,1,1,3,3,3-hexafluoropropan-2-ol], for which the pIC50 on CDK6/CCND1 (setting [1]) was under 6.60; at CDK4/CCND3 (setting [2]) it was under 6.60; on CDK2/CCNE1 (setting [4]) it was over 7.60; at CDK1/CCNB1 (setting [3]) it was under 6.60.

On to `CC1NCCc2cc(-c3nccc4cnc(Nc5ccc(S(C)(=O)=O)cc5)cc34)ccc21` (single isomer, unassigned) [Example 599, 5-(1-methyl-1,2,3,4-tetrahydroisoquinolin-6-yl)-N-(4-(methylsulfonyl)phenyl)-2,6-naphthyridin-3-amine], for which the pIC50 was under 6.60 on CDK6/CCND1 (setting [1]); under 6.60 at CDK4/CCND3 (setting [2]); 6.60 to 7.60 on CDK2/CCNE1 (x = IC50 25-250 nM, read-out: CDK2/CCNE IC50 (25-250 nM)); under 6.60 on CDK1/CCNB1 (setting [3]).

Consider `Cc1c(-c2nccc3cnc(Nc4ccc(S(C)(=O)=O)cc4)cc23)ccc2c1cnn2CC(C)O` (single isomer, unassigned) [Example 614, 1-(4-methyl-5-(7-((4-(methylsulfonyl)phenyl)amino)-2,6-naphthyridin-1-yl)-1H-indazol-1-yl)propan-2-ol], for which the pIC50 at CDK6/CCND1 (setting [5]) is 6.60 to 7.60; on CDK4/CCND3 (setting [6]) it was 6.60 to 7.60; at CDK2/CCNE1 (setting [4]) it was over 7.60; at CDK1/CCNB1 (setting [3]), under 6.60.

As for `CC1(O)C=C(c2nccc3cnc(Nc4ccc(S(C)(=O)=O)cc4)cc23)CCC1` (single isomer, unassigned) [Example 625, 1-methyl-3-(7-((4-(methylsulfonyl)phenyl)amino)-2,6-naphthyridin-1-yl)cyclohex-2-en-1-ol], the pIC50 was 6.60 to 7.60 at CDK6/CCND1 (setting [5]), under 6.60 on CDK4/CCND3 (setting [2]), over 7.60 on CDK2/CCNE1 (setting [4]) and 6.60 to 7.60 at CDK1/CCNB1 (setting [7]).

`Cc1c(-c2nccc3cnc(Nc4ccc(S(C)(=O)=O)cc4)cc23)ccc2c1cnn2CC(C)(C)O` (single isomer, unassigned) [Example 674, 2-methyl-1-(4-methyl-5-(7-((4-(methylsulfonyl)phenyl)amino)-2,6-naphthyridin-1-yl)-1H-indazol-1-yl)propan-2-ol]: the pIC50 was 6.60 to 7.60 on CDK6/CCND1 (setting [5]), 6.60 to 7.60 on CDK4/CCND3 (setting [6]), over 7.60 at CDK2/CCNE1 (setting [4]) and 6.60 to 7.60 at CDK1/CCNB1 (setting [7]).

With `CS(=O)(=O)N1CCC(Nc2cc3c(N4CCCCC4)nccc3cn2)CC1` [Ex 27, N-(1-(methylsulfonyl)piperidin-4-yl)-5-(piperidin-1-yl)-2,6-naphthyridin-3-amine], the pIC50 at CDK6/CCND1 (setting [8]) is over 7.60; at CDK4/CCND3 (setting [9]), over 7.60; at CDK2/CCNE1 (<25 nM, read-out: CDK2/CCNE IC50 <25 nM), over 7.60; on CDK1/CCNB1 (25-250 nM marked x, read-out: CDK1/CCNB IC50 25-250 nM) it was 6.60 to 7.60.

In the case of `CN1CCC(C2CCN(c3nccc4cnc(NC5CCN(S(C)(=O)=O)CC5)cc34)CC2)CC1` [Ex 28, 5-(1'-methyl-[4,4'-bipiperidin]-1-yl)-N-(1-(methylsulfonyl)piperidin-4-yl)-2,6-naphthyridin-3-amine], the pIC50 on CDK6/CCND1 (setting [8]) was over 7.60; at CDK4/CCND3 (25-250 nM marked x, read-out: CDK4/CCND IC50 25-250 nM), 6.60 to 7.60; at CDK2/CCNE1 (setting [10]) it was 6.60 to 7.60; on CDK1/CCNB1 (setting [11]), under 6.60.

As for `CN1CCN(c2nccc3cnc(NC4CCN(S(C)(=O)=O)CC4)cc23)CC1` [Ex 29, 5-(4-methylpiperazin-1-yl)-N-(1-(methylsulfonyl)piperidin-4-yl)-2,6-naphthyridin-3-amine], the pIC50 is over 7.60 at CDK6/CCND1 (setting [8]), over 7.60 on CDK4/CCND3 (setting [9]), 6.60 to 7.60 at CDK2/CCNE1 (setting [10]) and under 6.60 on CDK1/CCNB1 (setting [11]).
